According to US8980542B2, “Arginine-containing compositions and methods for treating red blood cells” (Viacell, LLC, priority 2010, dated 2015):

Assays:
stored RBCs = test: 2,3-DPG level of stored RBCs after incubation with storage and/or rejuvenating composition (Roche 2,3-DPG kit); assay type: cell-based; settings: 60 minutes at 37° C.
Method: A storage and/or rejuvenating composition that includes D-ribose, inosine, sodium pyruvate, and inorganic phosphate, all at a 300 mM concentration as a slurry was prepared. When used to store and/or rejuvenate RBCs, the slurry is diluted 30-fold to a final concentration of 10 mM to form a solution. […] In a study, RBCs were collected and stored for an average of 21 days at 4° C. according to standard blood banking practice. Various RBC storage and/or rejuvenating compositions were added to the 21-day old stored RBCs and held at 37° C. for one to four hours before being tested for 2,3-DPG concentrations. […] A normal 2,3-DPG concentration of RBC immediately upon harvest is 4.0 μmol/ml. […] An increase to 1.0 μmol/ml is considered a significant improvement.
Experimental protocols were designed to find methods to increase the solubility of inosine. […] A storage and/or rejuvenating composition including 300 mM each of inosine, L-arginine, sodium pyruvate, D-ribose, and inorganic phosphate was diluted 30-fold into 21-day old stored RBCs. One set of stored blood samples was incubated for 60 minutes at room temperature and another was incubated for 60 minutes at 37° C.

[1] = Solubility of nucleoside in the composition; assay type: physicochemical; settings: equimolecular solution with L-arginine, room temperature

## Nc1nc2c(ncn2[C@@H]2O[C@H](CO)[C@@H](O)[C@H]2O)c(=O)[nH]1 [Guanosine]
Stored RBCs; guanosine with 10 mM each inorganic phosphate and D-ribose, no sodium pyruvate
  Rejuvenation: observed

## O=C[C@H](O)[C@H](O)[C@H](O)COP(=O)(O)O [ribose-5-phosphate]
Stored RBCs; inosine replaced by varying concentrations of the substance in composition with 10 mM each D-ribose, sodium pyruvate, inorganic phosphate
  Rejuvenation: not observed

## OC[C@H]1O[C@@H](n2cnc3c(O)ncnc32)[C@H](O)[C@@H]1O [inosine]
[1]
  concentration at which inosine remained in solution: above 50 mM
